Data taken from patent US20060014677A1, “Method for maximizing efficacy and predicting and minimizing toxicity of calcineurin inhibitor compounds” (Isotechnika International Inc., priority 2004, published 2006).
≈ marks a conversion by molar mass, not a printed value.

How the values were obtained:
calcineurin = assay: Calcineurin inhibition assay on whole blood lysates, PK-PD sigmoid Emax model (Study A, phase II); format: in vivo, human; settings: FIG. 4A/4B; peak (C2) concentration vs % CNI
Protocol: At weeks 1, 6, and 12, serial whole blood samples were drawn and drug concentrations were determined. PK and PD were evaluated using standard non-compartmental analysis and a calcineurin inhibition assay. […] Whole blood lysates were evaluated for their ability to dephosphorylate a ^32P-labelled 19 amino acid peptide substrate in the presence of okadaic acid, a phosphatast type 1 and 2 inhibitor. Background phosphatase 2C activity (CsA and okadaic acid resistant activity) was determined and subtracted from each sample, with the assay performed in the presence and absence of excess added CsA. The remaining phosphatase activity was taken as calcineurin activity.
(§1) A direct PK-PD correlation was performed using a sigmoid Emax model.
AIC is the Akaike Information Criterion. It is a dimensionless “goodness of fit” parameter that is a modification of an ‘F-test.’ The lower the AIC number the better the fit. This relationship was constructed using concentrations from trough (C0) through hour 4 (C4).

psoriasis patients = assay: Psoriasis Area and Severity Index (PASI) vs trough concentration in psoriasis patients; format: in vivo, human; settings: FIG. 2
Text: While % CNI is used in FIG. 1 to illustrate drug efficacy, there are other ways to measure transplant drug efficacy or calcineurin inhibitor drug efficacy. For example, in animal models, graft survival in transplantation is an indication of immunosuppressive drug efficacy. However, graft survival is an experimental model that takes a long time to measure and is complicated in that grafts may not survive for reasons other than the effective concentration of immunosuppressive agents. For example, prolonged cold ischemic time, donor/recipient mismatch or surgical technique may affect outcome of a graft. In human transplant patients, episodes of rejection may be indicators of failure of a calcineurin inhibitor. Other markers may be patient survival, in the case of transplant. For Psoriasis, a decrease in Psoriasis Area and Severity Index (PASI) score is an indication of effective treatment of psoriasis. A 75% reduction in PASI score is commonly held as a successful therapy.
Using PASI score as another indicator of drug efficacy, FIG. 2 illustrates that as drug concentration increases, the PASI score, an indicator of psoriasis severity, decreases. […] EC50 is an indication of the potency of the drug. […] FIG. 2 illustrates the relationship between trough drug concentration (C0) and PASI score on day 42 of treatment where E equals effect, in this case measured by PASI score.

clinical = settings: human, in vivo
Protocol: (§2) At weeks 1, 6, and 12, serial whole blood samples were drawn and drug concentrations were determined. PK and PD were evaluated using standard non-compartmental analysis and a calcineurin inhibition assay. […] Whole blood lysates were evaluated for their ability to dephosphorylate a ^32P-labelled 19 amino acid peptide substrate in the presence of okadaic acid, a phosphatast type 1 and 2 inhibitor. Background phosphatase 2C activity (CsA and okadaic acid resistant activity) was determined and subtracted from each sample, with the assay performed in the presence and absence of excess added CsA. The remaining phosphatase activity was taken as calcineurin activity. Serum creatinine was measured from blood samples, as a measure of renal toxicity.
as §1
A measurement taken at 8 hours was used as peak concentration in the absence of a C2 measurement in this study. […] Cmin measurement could be a measurement taken at C0 or at C8, whichever measurement gave the lower measurement.
Percent fluctuation (FLU) was calculated as shown in Formula (2): [formula]

[1] = test system: stable renal transplant patients; settings: human, in vivo, 12 week
Protocol: as §2
This discriminant analysis was performed using SPSS for Windows version 10.1 software available from SPSS Inc.
A measurement taken at 8 hours was used as peak concentration in the absence of a C2 measurement in this study. […] Cmin measurement could be a measurement taken at C0 or at C8, whichever measurement gave the lower measurement. […] Clinical diagnosis of renal toxicity may require an increase of, for example, 50% over baseline.

EC50 (calcineurin): 161.8+54.5 ng/mL | EC50 (psoriasis patients; Homo sapiens, 1008 h, read-out: EC50, trough concentration required to achieve a 50% reduction in PASI, trough (C0), day 42 of treatment): 0.0135 ± 0.0081 µg/mL (≈ 0.0111 µM) | Cmax, mean (clinical): 159.59 ng/mL | t1/2, comparison between the two drugs (clinical): similar | time to maximum concentration (tmax), comparison between the two drugs (clinical): similar | C8, mean (clinical; 8 h): 54.327 ng/mL | concentration at 8 h (clinical; C8, mean): 37.3 ng/mL | Cmax (clinical; Cmax, mean): 188 ng/mL | number of patients with normal renal function (actual group membership) [1]: 121
Structure (SMILES): C=C/C=C/C[C@@H](C)[C@@H](O)[C@H]1C(=O)N[C@@H](CC)C(=O)N(C)CC(=O)N(C)[C@@H](CC(C)C)C(=O)N[C@@H](C(C)C)C(=O)N(C)[C@@H](CC(C)C)C(=O)N[C@@H](C)C(=O)N[C@H](C)C(=O)N(C)[C@@H](CC(C)C)C(=O)N(C)[C@@H](CC(C)C)C(=O)N(C)[C@@H](C(C)C)C(=O)N1C [ISA247]
Emax, maximum possible mean PASI (psoriasis patients; trough (C0) concentration vs PASI on day 42): 22.9±7 PAS1 | number of patients with renal toxicity (actual group membership) [1]: 26
